Laboratory results reported in PMC9586926, “An efflux-susceptible antibiotic-adjuvant with systemic efficacy against mouse infections” (Scientific Reports, 2022).
pIC50: −log10 of the molar value. In brackets after ≈: the same amount, converted by molar mass. Where a SMILES comes first, the peptide text is derived from it. [ ]: non-standard residue; d: D form. The star is where a group is joined. 12Ado = NCCCCCCCCCCCC(=O)O; Decanoyl = CCCCCCCCCC(=O)*; Dap = NC[C@H](N)C(=O)O

Columns and labels:
E. coli 25922 [1] = assay: Growth / time-kill kinetics; format: cell-based, Escherichia coli; settings: 10 µM C10BBc12B, 1 µg/ml erythromycin or 20 ng/ml rifampin alone
Experimental: Antimicrobials mode of action was determined according to the rate of bacterial killing. Varying concentrations of lipopeptides, antibiotics and combinations thereof were mixed in LB medium with 5 × 10^5 CFU/ml of bacteria (final volume of 1 ml) and incubated at 37 °C with shaking. At the designated time-points aliquots were serially tenfold diluted in saline, plated on LB agar, and incubated over-night at 37 °C for enumeration.

K. pneumoniae 1287 = assay: Combination with antibiotics, modified checkerboard titration; format: cell-based, Klebsiella pneumoniae
Experimental: (§1) MIC was determined according to the broth microdilution method: antimicrobials were subjected to serial twofold dilutions in LB medium, and incubated with 5 × 10^5 CFU/ml of bacteria (final volume of 200 µl) for 18–24 h at 37 °C. Then, O.D.620 nm was measured (BioTek Instruments Synergy HT; Winooski, VT, USA), and the MIC was defined as the lowest antimicrobial concentration for which no increase in O.D.620 nm was evident, compared to the untreated control.
(§2) Lipopeptides and antibiotics combinations were assessed using a modified version of the checkerboard titration method: Antibiotics MIC was determined in LB medium containing sub-inhibitory lipopeptide concentrations. The sensitization factor (SF)[46] was then calculated by SF = MICA/MICC, where “MICA” is the antibiotic MIC in absence of an adjuvant and “MICC “ is the antibiotic MIC in presence of an adjuvant, for a specified adjuvant concentration. Combinations were classified as synergistic when antibiotics MIC were decreased by > 4 folds. Alternatively, the fractional inhibitory concentration index (FICI) was calculated by FICI = MICC1/MICA1 + MICC2/MICA2, where “MICC1” and “MICC2” respectively specify the antibiotic and the adjuvant MIC values upon their combination, whereas “MICA1” and “MICA2” respectively specify the antibiotic and the adjuvant MIC values when tested individually. Combinations were classified as synergistic for FICI < 0.5.

[2] = tested on: S. Typhimurium 14028 (wild-type); settings: cited from earlier work
Source text: Table 2 Effect of RND pumps on growth-inhibitory activity. | column: MIC^a (µM) in LB / S. Typhimurium / Wild-Type

A. baumannii 19606 = assay: Selective pressure, MIC evolution over 15 consecutive subcultures; settings: in absence of C10BBc12B
Experimental: The likelihood of antimicrobial-resistance development was assessed by recording MIC changes upon consecutive rounds of antimicrobials application, as in the MIC assay. Following each round, bacteria from wells corresponding to ½ of the resulting MIC were regrown in fresh media to mid-logarithmic phase and subjected to the same procedure for 15 consecutive days[66].

[3] = tested on: E. coli Ag100 (wild-type); settings: cited from earlier work
Source text: Table 2 Effect of RND pumps on growth-inhibitory activity. | column: MIC^a (µM) in LB / E. coli / Wild-Type

[4] = tested on: S. Typhimurium 14028ΔAcrAB; settings: cited from earlier work
Source text: Table 2 Effect of RND pumps on growth-inhibitory activity. | column: MIC^a (µM) in LB / S. Typhimurium / Mutant

E. coli Ag100a (ΔacrAB) = settings: cited from earlier work
Source text: Table 2 Effect of RND pumps on growth-inhibitory activity. | column: MIC^a (µM) in LB / E. coli / Mutant

A. baumannii = assay: MIC, broth microdilution; format: cell-based, Acinetobacter baumannii; settings: broth microdilution in LB, 18–24 h, 37 °C; n = 1 strain
Source text: (§3) Bacteria used in this study consisted of standard American Type Culture Collection (ATCC; Biological Industries, Beit Haemek, Israel) strains, clinically isolated (CI; Sourasky Medical Center, Tel Aviv, Israel) strains, as well as isogenic mutant strains. Gram-negative bacteria included Acinetobacter baumannii ATCC 19606; Escherichia coli ATCC 25922, 35218, CFT073, CI 14384, 16327, and the isogenic pair Ag100 (wild-type) and its efflux deficient mutant Ag100a (ΔacrAB); Klebsiella pneumoniae CI 1287, 224; Pseudomonas aeruginosa ATCC 27853, CI 1278, 8634; Salmonella enterica serovar Typhimurium ATCC 14028 (wild-type) and its isogenic efflux deficient mutant ΔacrAB. Bacteria were grown in Luria–Bertani broth (LB; 5 g/l NaCl, 5 g/l yeast extract, 10 g/l tryptone; pH = 7.0) at 37 °C with shaking. Over-night cultures were diluted 10-folds into fresh growth-medium and incubated at 37 °C with shaking until reaching mid-logarithmic phase. Then, bacterial concentrations were adjusted using O.D.600 nm measurements, and bacteria were subjected to the experimental procedures listed herein.
as §1

K. pneumoniae = assay: MIC, broth microdilution; format: cell-based, Klebsiella pneumoniae; settings: broth microdilution in LB, 18–24 h, 37 °C; n = 2 strains
Source text: as §3, §1

E. coli = assay: MIC, broth microdilution; format: cell-based, Escherichia coli; settings: broth microdilution in LB, 18–24 h, 37 °C; n = 4 strains; published data in bold (not discernible)
Source text: as §3, §1

HEK-293FT = assay: Cytotoxicity, Alamar blue; format: cell-based, human; settings: 24 h incubation, read-out: IC50 HEK-293FT (50% inhibition of cells respiration)
Experimental: (§4) Cell lines used in this study included murine RAW 264.7 macrophages and human embryonic kidney HEK-293FT cells (ATCC, Biological Industries, Beit Haemek, Israel). Cells were grown in Dulbecco’s modified eagle medium (DMEM) containing […] glucose, L-glutamine, sodium bicarbonate and sodium pyruvate, supplemented with 10% fetal bovine serum and pen-strep, at 37 °C and 5% CO2.
(§5) Lipopeptides cytotoxicity was determined using fluorescent measurements of reduced resazurin. 2 × 10^4 cells were first cultured in 96-well plates over-night (final volume of 100 µl) at 37 °C and 5% CO2. Then, the medium was removed and cells were incubated for an additional 24 h with serial twofold dilutions of the lipopeptides in growth medium. Then, 10 µl of Alamar blue were added and plates were incubated for 3 h, after which fluorescence (excitation: 530 nm; emission: 590 nm) of the reduced resazurin was recorded (BioTek Instruments Synergy HT; Winooski, VT, USA).

murine RBC = assay: Hemolysis; format: cell-based; settings: 1% hematocrit murine RBC, 3 h, 37 °C
Experimental: Permeabilization of red blood cells (RBC) was evaluated using absorbance measurements of extracellular hemoglobin. Serial twofold dilutions of lipopeptides were incubated with 1% hematocrit of murine RBC for 3 h at 37 °C with shaking. Samples were then centrifuged at 20,000 RCF for 5 min, and absorbance of the supernatants was measured at 450 nm (BioTek Instruments Synergy HT; Winooski, VT, USA). Percent hemolysis was then calculated by (AS − AN)/(AP − AN) × 100; where AS, AN, and AP represent the absorbance of the sample, negative control (PBS) and positive control (Milli-Q water), respectively. LC50 values were extracted from trend-lines generated for linear-regions of plots correlating lipopeptide concentrations and percent hemolysis.

E. coli 25922 [5] = settings: same assessment tools; cited from earlier work
Source text: To our knowledge, the finding of an adjuvant whose activity is enhanced—rather than repressed—after efflux, is hitherto unreported. One might ask, at this point: If the K-, O and B-based analogs are efflux substrates (as implied by MIC data, Table 2), how come only C10BBc12B is positively affected by efflux?

P. aeruginosa = assay: MIC, broth microdilution; format: cell-based, Pseudomonas aeruginosa; settings: broth microdilution in LB, 18–24 h, 37 °C; n = 3 strains
Source text: as §3, §1

RAW 264.7 = assay: Cytotoxicity, Alamar blue; format: cell-based, murine; settings: 24 h incubation, read-out: IC50 RAW 264.7 (50% inhibition of cells respiration)
Experimental: as §4, §5

[6] = tested on: Gram-negative ESKAPE pathogens; assay: MIC against 10 bacterial strains of the four Gram-negative ESKAPE species; format: cell-based
Source text: as §3
MIC was determined according to the broth microdilution method: antimicrobials were subjected to serial twofold dilutions in LB medium, and incubated with 5 × 10^5 CFU/ml of bacteria (final volume of 200 µl) for 18–24 h at 37 °C. […]

[7] = parameters: method as in PMID 20480482; settings: cited from earlier work
E. coli 25922 [8] = format: cell-based, Escherichia coli; settings: E. coli
Experimental: as §1, §2

E. coli 25922 [9] = assay: Peritonitis-sepsis infection model in neutropenic mice; format: in vivo; settings: n = 10
Experimental: (§6) The study is reported in accordance with ARRIVE guidelines.
(§7) Lipopeptides potential application in monotherapy and/or combination-therapies was explored with two infection models. In the peritonitis-sepsis model, mice (n = 10 per group) were first rendered neutropenic by two intraperitoneal (I.P.) injections of 0.3 ml containing 150 mg/kg and 100 mg/kg cyclophosphamide, administered 4 days and 1 day before the experiment, respectively. […] Mice survival was recorded for up to 7 days. In a variant assay, bacteria in PBS (1.4 × 10^6) were pre-treated with 10 µM lipopeptides for 15 min, similarly administered, and mice survival was recorded for up to 3 days. In the urinary-tract infection (UTI) model, mice (N = 5 mice per group) were anesthetized by a single I.P. injection (0.2 ml) containing a mixture of ketamine (100 mg/kg) and xylazine (5 mg/kg). Following application of an analgesic 2% lidocaine gel on their penises, mice were infected intra-urethraly using a 24-gauge catheter with 1.2 × 10^8 CFU/mouse (0.05 ml) and treated with the vehicle control (S.C., 1 h post-infection), 2 mg/kg rifampin (oral gavage, immediately before anesthesia), 7.5 mg/kg q.i.d. lipopeptides (S.C., starting 1 h post-infection), or both. Mice were sacrificed 24 h post-infection, their bladder and kidneys aseptically excised, suspended in 5 ml of sterile PBS, homogenized for 3 min using a bench-top homogenizer, serially tenfold diluted in saline, plated on LB agar, and incubated over-night at 37 °C for enumeration.

UPEC CFT073 = assay: Urinary-tract infection model; format: in vivo, mice; settings: 24 h post-infection; 2 mg/kg rifampin, 7.5 mg/kg q.i.d. C10BBc12B or both; n = 5
Experimental: as §6, §7

| Structure (SMILES) | effect on bacterial proliferation, individual agent (E. coli 25922 [1]) | MIC (µM) in LB, S. Typhimurium Wild-Type [2] [µM] | antibiotic MIC after 15 consecutive subcultures (A. baumannii 19606) | antibiotic MIC before subculturing (A. baumannii 19606) [µg/mL] | MIC (µM) in LB, E. coli Wild-Type [3] [µM] | MIC (µM) in LB, S. Typhimurium Mutant [4] [µM] | MIC (µM) in LB, E. coli Mutant (E. coli Ag100a (ΔacrAB)) [µM] | MIC A. baumannii (n=1) (A. baumannii) [µM] | MIC K. pneumoniae (n=2) (K. pneumoniae) [µM] | MIC E. coli (n=4) (E. coli) [µM] | pIC50 (HEK-293FT) | LC50 Erythrocytes (50% hemolysis) (murine RBC) [µM] | pIC50 (RAW 264.7) | further results |
| --- | --- | --- | --- | --- | --- | --- | --- | --- | --- | --- | --- | --- | --- | --- |
| CC[C@H]1OC(=O)[C@H](C)[C@@H](O[C@H]2C[C@@](C)(OC)[C@@H](O)[C@H](C)O2)[C@H](C)[C@@H](O[C@@H]2O[C@H](C)C[C@H](N(C)C)[C@H]2O)[C@](C)(O)C[C@@H](C)C(=O)[C@H](C)[C@@H](O)[C@]1(C)O [Erythromycin] | unable to significantly alter bacterial proliferation | > 50 | 8,192 µg/ml | 64 | > 50 | 6.8 (≈ 4.99 µg/mL) | 10.9 (≈ 8 µg/mL) |  |  |  |  |  |  | antibiotic inhibitory concentration in absence of adjuvant (K. pneumoniae 1287): 512 µg/mL; antibiotic inhibitory concentration in presence of C10BBc12B (K. pneumoniae 1287): 0.250 µg/mL |
| CCCCCCCCCC(=O)N[C@@H](CCCCN)C(=O)N[C@@H](CCCCN)C(=O)NCCCCCCCCCCCC(=O)N[C@@H](CCCCN)C(N)=O [C10KKc12K] (Decanoyl-KK[12Ado]K-NH2) |  | > 50 |  |  | > 50 | 25 (≈ 18.8 µg/mL) | 6.2 (≈ 4.67 µg/mL) | > 50 | ≥ 50 | ≥ 50 | < 4.30 | > 50 | < 4.30 | CM depolarization (E. coli 25922 [5]): interact with the CM to the point of inducing its depolarization; MIC P. aeruginosa (n=3) (P. aeruginosa): > 50 µM |
| CCCCCCCCCC(=O)N[C@@H](CN)C(=O)N[C@@H](CN)C(=O)NCCCCCCCCCCCC(=O)N[C@@H](CN)C(N)=O [C10PPc12P] (Decanoyl-[Dap][Dap][12Ado][Dap]-NH2) |  |  |  |  |  |  |  | > 50 | ≥ 50 | 12.5 to 25 | < 4.30 | 26 | < 4.30 | MIC [6]: occasionally presented somewhat lower MIC values; side-chain β-NH2 group pKa [7]: 6.3 |
| CO[C@H]1/C=C/O[C@@]2(C)Oc3c(C)c(O)c4c(O)c(c(/C=N/N5CCN(C)CC5)c(O)c4c3C2=O)NC(=O)/C(C)=C\C=C\[C@H](C)[C@H](O)[C@@H](C)[C@@H](O)[C@@H](C)[C@H](OC(C)=O)[C@@H]1C [Rifampin, reference compound] | unable to significantly alter bacterial proliferation | 19.4 (≈ 16 µg/mL) | 8 µg/mL | 2 | 19.4 (≈ 16 µg/mL) | 19.4 (≈ 16 µg/mL) | 19.4 (≈ 16 µg/mL) |  |  |  |  |  |  | antibiotic MIC in presence of C10BBc12B (K. pneumoniae 1287): below 1 ng/ml; antibiotic MIC in presence of C10BBc12B (E. coli 25922 [8]): below 1 ng/ml; survival rate, monotherapy (E. coli 25922 [9]; 1.7 × 10^6 CFU/mouse, […] C10BBc12B S.C. 1 h post-infection or 20 mg/kg rifampin oral gavage): 50%; efficacy, monotherapy, higher inoculum (E. coli 25922 [9]; 1.9 × 10^6 CFU/mouse, […] C10BBc12B S.C. or 20 mg/kg rifampin oral): virtually no efficacy; bladder bacterial load (UPEC CFT073): no reduction in bacterial load |
